{"source": "paper PMC12514245", "about": "“Impaired migration and lung invasion of human melanoma by a novel small molecule targeting the transmembrane domain of death receptor p75^NTR” (EMBO Molecular Medicine, 2025)", "key": {"[1]": {"test_system": "A875-NT melanoma xenograft", "test": "Melanoma lung invasion assay, A875-NT, treatment from one day before cell injection", "assay_type": "in vivo, SCID mice", "conditions": "for Photons/second/ mouse/week, Average: group average; for Photons/second/ mouse/week: single mouse", "experimental": "Next, to assess the potential inhibitory effects of Np75-4A22 on melanoma cell migration and tissue invasion in vivo, we utilized the highly metastatic human A875 xenograft model. […] Initially, to mimic metastatic dissemination from the primary tumor site, A875-NT or A875-shp75 cells expressing GFP-Luc (for live-monitoring of tumor growth) were injected intravenously in female SCID mice 24 h following a single oral administration of Np75-A422 (200 mg/kg) or drug vehicle alone. Mice received 3 cycles of Np75-A422 (200 mg/kg/day) following a 5 day on and 2 days off drug schedule for a total of 3 weeks (Fig. 8A). Metastatic spread to the lungs was monitored weekly by luciferase activity using the Xenogen IVIS-200 Optical in vivo luciferase imaging system and mice were sacrificed after the third week. […] In addition, assessment of the metastatic spread was also quantified by histological assessment of non-consecutive lung sections stained for human nucleolin to detect the tumor cells. […] In addition, and as expected, high expression of p75^NTR was detected in lung tumors established by A875-NT cells but was negligible in tumors derived from A875-shp75 cells (Fig. EV10).\nEight-week-old female SCID mice (Charles River Laboratories, Shrewsbury, MA, USA) were housed in groups of three to five and maintained on a 12-h light/dark schedule with a temperature of 22 °C ± 1 °C and a relative humidity of 50% ± 5%. Food and water were available ad libitum. This research study was reviewed and approved by the University of Calgary Animal Care Committee (AC22-0054) and McGill University (AUP-JGH-8269) and adheres to established ethical principles and guidelines. A875-GFPLuc (A875-NT) or A875-GFPLuc shp75 (A875-shp75) cells harvested using Puck’s EDTA were resuspended in PBS and injected intravenously into SCID mice (5 × 10^5 cells/200 μl per mouse). Np75-4A22 was dissolved in 0.5% sodium carboxymethyl cellulose (NaCMC) in reverse osmosis H2O and administered by oral gavage at 200 mg/kg/day starting one day prior to intravenous (tail vein) injection of tumor cells and continued for 3 1-week cycles (cycle: 5 days on drug, 2 days off drug). Tumor spread to the lung was monitored weekly by luciferase activity using the Xenogen IVIS-200 Optical in vivo luciferase imaging system as described previously (Lun et al, [2016]) and by immunohistochemistry (IHC) at designated time points. IHC was performed after formalin fixation, paraffin embedding and sectioning of the lungs, using a human-specific mouse polyclonal nucleolin antibody (1:500 dilution) and detected using Dako liquid DAB+ Substrate Chromogen System (Dako: k3468, California, USA) followed by a hematoxylin counterstain (Sigma, Oakville, ON, Canada). Sections were mounted and imaged on an Olympus phase contrast microscope (Olympus Life Science, Tokyo, Japan). For immunofluorescence, sections were stained with anti-human nucleolin and anti-human p75NTR antibodies (1:1000 dilution), subsequently detected with 1:200 dilutions of Alexa Fluor™ 488 Goat anti-Mouse IgG (H + L) Highly Cross-Adsorbed Secondary Antibody and Alexa Fluor™ 568 Goat anti-Rabbit IgG (H + L) Cross-Adsorbed Secondary Antibody. Sections were further stained with DAPI to detect all nuclei. Between each treatment, TBS Automation Wash Buffer (Biocare Medical TWB945M) was employed. Images were taken with LSM800 confocal microscope and ZEN system."}, "[2]": {"test_system": "A875 shp75 cells", "test": "Filopodia per cell (phalloidin staining), A875 shp75", "assay_type": "cell-based, human", "conditions": "for filopodia per cell (mean of 3 experiments) / filopodia per cell (mean of one experiment): A875 shp75; for filopodia per cell (mean of one experiment): EXP1-EXP3", "experimental": "For assessment of actin filaments, A875 cells were plated on glass coverslips in 24-well plate at a confluency of 3 × 10^4 cells/well. One day after plating, the cells were treated with 1 μM or 5 μM Np75-4A22 and NGF (100 ng/ml) or PBS for 24 h. Cells were fixed in 4% paraformaldehyde, permeabilized in 0.1% Triton-X-100, stained with Phalloidin-iFluor 488 (Abcam) at 1:2000 dilution and DAPI for 1 h. Coverslips were mounted and visualized in a laser confocal microscope."}, "[3]": {"assay_type": "in vivo", "conditions": "oral gavage 200 mg/kg daily (5 days on, 2 days off), 3 weeks; female SCID"}, "[4]": {"test_system": "A875 shp75 knock-down cells", "test": "Cleaved PARP western blot (apoptosis), A875 shp75", "assay_type": "cell-based, human", "experimental": "One of the main biological readouts of p75^NTR activity in response to neurotrophins is the induction of caspase-mediated apoptotic cell death (Underwood and Coulson, [2008]; Friedman, [2010]; Ibáñez and Simi, [2012]).\nCOS7, A875 and WM115 cell lines were cultured under standard conditions in DMEM supplemented with 10% fetal calf serum, 100 units/ml penicillin, […] streptomycin, and 2.5 mM glutamine. All cells were authenticated and tested for mycoplasma contamination. A875-NT (control) and A875 shp75 (knockdown) cell lines were described previously (Goh et al, [2018])."}, "[5]": {"conditions": "A875 shp75, EXP3, 1 uM 4A22 + 100 ng/ml NGF"}, "[6]": {"conditions": "A875 shp75 cells, EXP1, 1 uM 4A22, wells 1-4"}, "[7]": {"conditions": "A875 shp75 cells, EXP1, 5 uM 4A22 + 100 ng/ml NGF, wells 1-4"}, "[8]": {"conditions": "A875 shp75 cells, EXP2, 1 uM 4A22 + 100 ng/ml NGF, wells 1-4"}, "[9]": {"conditions": "A875 shp75 cells, EXP2, 5 uM 4A22 + 100 ng/ml NGF, wells 1-4"}, "[10]": {"conditions": "A875 shp75 cells, EXP2, 5 uM 4A22, wells 1-4"}}, "note": "Where “and” joins values, the source holds several entries; their conditions need not be identical. Equal entries are not always repeated."}
{"smiles": "Cc1cccc(-c2cncc(Nc3ccc(Br)c(Cl)c3Cl)n2)c1C", "note": "[Np75-4A22]", "values": [{"measurement": "Photons/second/ mouse/week, Average", "setting": "[1]; A875-NT, 1wk", "value": "9.39E+04", "unit": "Photons/second"}, {"measurement": "Photons/second/ mouse/week", "setting": "[1]; A875-NT, 1wk", "value": "8.62E+04 Photons/second and 1.03E+05 Photons/second and 1.11E+05 Photons/second and 1.02E+05 Photons/second and 1.26E+05 Photons/second and 1.23E+05 Photons/second and 7.03E+04 Photons/second and 6.52E+04 Photons/second and 7.29E+04 Photons/second and 7.98E+04 Photons/second"}, {"measurement": "Photons/second/ mouse/week, Average", "setting": "[1]; A875-NT, 2wks", "value": "1.01E+05", "unit": "Photons/second"}, {"measurement": "Photons/second/ mouse/week", "setting": "[1]; A875-NT, 2wks", "value": "9.63E+04 Photons/second and 1.02E+05 Photons/second and 1.27E+05 Photons/second and 8.86E+04 Photons/second and 1.04E+05 Photons/second and 1.23E+05 Photons/second and 9.01E+04 Photons/second and 9.59E+04 Photons/second and 8.45E+04 Photons/second and 9.64E+04 Photons/second"}, {"measurement": "Photons/second/ mouse/week", "setting": "[1]; A875-NT, 3wks", "value": "1.77E+05 Photons/second and 1.53E+05 Photons/second and 2.03E+05 Photons/second and 2.34E+05 Photons/second and 2.96E+05 Photons/second and 2.73E+05 Photons/second and 1.26E+05 Photons/second and 2.18E+05 Photons/second and 2.30E+05 Photons/second and 1.32E+05 Photons/second"}, {"measurement": "Metastatic Nodules/Lung Section, Average", "setting": "[1]; A875-NT, average of 5 non-consecutive slides per individual mouse", "value": "0.6 and 0.2 and 0.4 and 1 and 0"}, {"measurement": "Cancer Cells/Lung Section, Average per mouse", "setting": "[1]; A875-NT, average of 5 slides of one mouse", "value": "5.4 and 2 and 18.4 and 8 and 21.4 and 2.2 and 0"}, {"measurement": "Cancer Cells/Lung Section, group Average", "setting": "[1]; A875-NT, average of all mice", "value": 6.16}, {"measurement": "Metastatic Nodules/Lung Section, group Average", "setting": "[1]; A875-NT, average over all mice of the group", "value": 0.36}, {"measurement": "Metastatic Nodules/Lung Section, Slide 1", "setting": "[1]; A875-NT, individual mouse, slide 1 of 5 non-consecutive slides/mouse", "value": "0 and 1"}, {"measurement": "Metastatic Nodules/Lung Section, Slide 2", "setting": "[1]; A875-NT, individual mouse, slide 2 of 5 non-consecutive slides/mouse", "value": "1 and 0"}, {"measurement": "Metastatic Nodules/Lung Section, Slide 3", "setting": "[1]; A875-NT, individual mouse, slide 3 of 5 non-consecutive slides/mouse", "value": "0 and 1"}, {"measurement": "Metastatic Nodules/Lung Section, Slide 4", "setting": "[1]; A875-NT, individual mouse, slide 4 of 5 non-consecutive slides/mouse", "value": "0 and 1 and 2"}, {"measurement": "Metastatic Nodules/Lung Section, Slide 5", "setting": "[1]; A875-NT, individual mouse, slide 5 of 5 non-consecutive slides/mouse", "value": "2 and 1 and 0"}, {"measurement": "lung tumors (luciferase imaging)", "setting": "[1]; oral 200 mg/kg/day, 3 cycles 5 days on/2 days off", "value": "dramatic reduction of lung tumors"}, {"measurement": "lung tumors by histology (human nucleolin; cancer cells and lesions)", "setting": "[1]; oral 200 mg/kg/day, 3 weeks", "value": "marked reduction"}, {"measurement": "filopodia per cell, compound alone", "setting": "[2]; 1 or 5 μM", "value": "no effects per se"}, {"measurement": "filopodia per cell (single image)", "setting": "[2]; [5]", "value": 35}, {"measurement": "filopodia per cell (well mean)", "setting": "[2]; [5]", "value": "35.0833 and 29.3333 and 46.5 and 31.1667"}, {"measurement": "filopodia per cell (single image)", "setting": "[2]; A875 shp75, EXP3, 5 uM 4A22", "value": 35}, {"measurement": "filopodia per cell (well mean)", "setting": "[2]; A875 shp75, EXP3, 5 uM 4A22", "value": "26.25 and 40.3333 and 46.1111 and 41.3333"}, {"measurement": "filopodia per cell (well mean)", "setting": "[2]; A875 shp75, EXP3, 5 uM 4A22 + 100 ng/ml NGF", "value": "35.1667 and 32.8333 and 43.3889 and 37.5"}, {"measurement": "filopodia per cell (mean of 3 experiments)", "setting": "[2]; 100ng/ml NGF&1uM 4A22", "value": 37.2384}, {"measurement": "filopodia per cell (mean of one experiment)", "setting": "[2]; 100ng/ml NGF&1uM 4A22", "value": "38.132 and 38.0625 and 35.5208"}, {"measurement": "filopodia per cell (mean of 3 experiments)", "setting": "[2]; 100ng/ml NGF&5uM 4A22", "value": 37.6510}, {"measurement": "filopodia per cell (mean of one experiment)", "setting": "[2]; 100ng/ml NGF&5uM 4A22", "value": "35.6615 and 40.0695 and 37.2222"}, {"measurement": "filopodia per cell (mean of 3 experiments)", "setting": "[2]; 1uM 4A22", "value": 34.8819}, {"measurement": "filopodia per cell (mean of one experiment)", "setting": "[2]; 1uM 4A22", "value": "30.6458 and 39.4583 and 34.5417"}, {"measurement": "filopodia per cell (mean of 3 experiments)", "setting": "[2]; 5uM 4A22", "value": 36.6829}, {"measurement": "filopodia per cell (mean of one experiment)", "setting": "[2]; 5uM 4A22", "value": "35.8958 and 35.6458 and 38.5069"}, {"measurement": "filopodia per cell (well mean)", "setting": "[2]; A875 shp75 cells, EXP1, 1 uM 4A22 + 100 ng/ml NGF, wells 1-4", "value": "34.0833 and 42.6667 and 40.1111 and 35.6667"}, {"measurement": "filopodia per cell (single image)", "setting": "[2]; [6]", "value": 35}, {"measurement": "filopodia per cell (well mean)", "setting": "[2]; [6]", "value": "28.25 and 31.6667 and 30.4167 and 32.25"}, {"measurement": "filopodia per cell (single image)", "setting": "[2]; [7]", "value": 35}, {"measurement": "filopodia per cell (well mean)", "setting": "[2]; [7]", "value": "38.8333 and 30.1667 and 37.3125 and 36.3333"}, {"measurement": "filopodia per cell (well mean)", "setting": "[2]; A875 shp75 cells, EXP1, 5 uM 4A22, wells 1-4", "value": "36.5 and 34.5 and 32.75 and 39.8333"}, {"measurement": "filopodia per cell (single image)", "setting": "[2]; [8]", "value": 35}, {"measurement": "filopodia per cell (well mean)", "setting": "[2]; [8]", "value": "43.1667 and 38 and 39.3333 and 31.75"}, {"measurement": "filopodia per cell (well mean)", "setting": "[2]; A875 shp75 cells, EXP2, 1 uM 4A22, wells 1-4", "value": "35.6667 and 37.1667 and 36.6667 and 48.3333"}, {"measurement": "filopodia per cell (single image)", "setting": "[2]; [9]", "value": 35}, {"measurement": "filopodia per cell (well mean)", "setting": "[2]; [9]", "value": "43.6667 and 38.1667 and 45.6111 and 32.8333"}, {"measurement": "filopodia per cell (single image)", "setting": "[2]; [10]", "value": 35}, {"measurement": "filopodia per cell (well mean)", "setting": "[2]; [10]", "value": "36.5 and 31 and 38.1667 and 36.9167"}, {"measurement": "mortality, clinical signs and gross histological pathology", "setting": "[3]", "value": "No mortality or adverse clinical signs"}]}
{"smiles": "Oc1ccc(-c2cncc(Nc3ccc(Br)c(Cl)c3)n2)cc1", "note": "[Div17E5]", "values": [{"measurement": "apoptosis (cleavage of PARP) after p75NTR knock-down", "setting": "[4]", "value": "significantly reduced the pro-apoptotic effects"}]}
